SMILES strings stand for the structures.

Experiment [1] deals with cytokines (IFN-γ, IL-10, IL-12 p40, IL-1β, IL-5, IL-6, MCP-1, KC, TNF-α). It is filed as in vivo, mice. The note with it: IP; peak concentration over 24 h; FIG. 6.
Another experiment deals with human TLR7 (Homo sapiens (Human), UniProt Q9NYK1). It is filed as cell-based. The note with it: HEK293 reporter; relative to resiquimod set to 100%.
Sequence of human TLR7 (Q9NYK1 27-1049 limits assumed): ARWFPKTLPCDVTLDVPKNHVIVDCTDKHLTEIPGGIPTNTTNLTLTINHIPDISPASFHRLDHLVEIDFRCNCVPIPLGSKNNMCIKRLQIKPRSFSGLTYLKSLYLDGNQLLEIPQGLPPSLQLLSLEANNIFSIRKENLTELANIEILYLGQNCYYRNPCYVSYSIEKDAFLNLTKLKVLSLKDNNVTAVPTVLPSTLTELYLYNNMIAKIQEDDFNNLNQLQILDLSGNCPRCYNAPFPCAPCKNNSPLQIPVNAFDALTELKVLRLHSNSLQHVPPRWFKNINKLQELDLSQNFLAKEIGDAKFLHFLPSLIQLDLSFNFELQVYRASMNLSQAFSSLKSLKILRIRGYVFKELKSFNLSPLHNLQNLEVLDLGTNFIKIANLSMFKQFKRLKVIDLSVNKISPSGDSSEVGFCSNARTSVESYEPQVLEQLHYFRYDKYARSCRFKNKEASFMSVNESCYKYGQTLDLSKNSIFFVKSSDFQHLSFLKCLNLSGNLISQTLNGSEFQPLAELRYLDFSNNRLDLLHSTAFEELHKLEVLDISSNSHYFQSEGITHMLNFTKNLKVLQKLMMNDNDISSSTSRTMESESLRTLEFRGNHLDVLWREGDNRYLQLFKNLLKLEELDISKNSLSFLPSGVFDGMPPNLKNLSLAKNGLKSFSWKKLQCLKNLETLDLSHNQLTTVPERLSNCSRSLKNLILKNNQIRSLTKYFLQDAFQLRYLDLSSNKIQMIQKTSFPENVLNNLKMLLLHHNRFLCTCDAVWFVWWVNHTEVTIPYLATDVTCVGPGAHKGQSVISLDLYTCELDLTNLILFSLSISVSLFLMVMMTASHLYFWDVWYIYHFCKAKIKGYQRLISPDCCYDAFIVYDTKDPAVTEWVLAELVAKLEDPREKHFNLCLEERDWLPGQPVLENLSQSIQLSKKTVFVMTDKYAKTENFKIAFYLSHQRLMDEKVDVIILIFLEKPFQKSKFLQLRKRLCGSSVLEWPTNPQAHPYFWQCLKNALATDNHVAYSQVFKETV

Consider `COc1ccc(CCc2cnc3c(N)nc4cc(C)ccc4c3c2)c(C)c1` [SMIP 28, 2-(4-methoxy-2-methylphenethyl)-8-methylbenzo[f][1,7]naphthyridin-5-amine], for which, in experiment [1], the “cytokine induction of IL-1β compared to R-848” value is on record as “significantly greater cytokine induction of IL-1β”; the “cytokine induction of IL-5 compared to peanut oil-control” value was “Neither administration of SMIP 28 nor R-848, compared to peanut oil-control, resulted in a cytokine induction of IL-5”; the “cytokines induced compared to peanut oil-control” value is “cytokine induction of IFN-γ, IL-12 p40, IL-1β, IL-6, MCP-1, mKC, and TNF-α”.

Turning to `CCOCc1nc2c(N)nc3ccccc3c2n1CC(C)(C)O` [R-848, resiquimod, reference compound], in experiment [1], the “cytokine induction of IL-5 compared to peanut oil-control” value is recorded as “Neither administration of SMIP 28 nor R-848, compared to peanut oil-control, resulted in a cytokine induction of IL-5”; the “cytokines induced compared to peanut oil-control” value was “cytokine induction of IFN-γ, IL-10, IL-12 p40, IL-6, MCP-1, mKC, and TNF-α”.

In the case of `COc1ccc(CCc2cnc3c(N)nc4cc(C(C)(P(=O)(O)O)P(=O)(O)O)ccc4c3c2)c(C)c1` [Compound 19], the EC50 (as a rule, the concentration that produces a half-maximal response) on human TLR7 is 23800 nM.

(Values after US9597326B2 (priority 2010, dated 2017).)
